{
  "source": "patent US11958829B1",
  "about": "“3-(4,5-diphenyl-2-(pyridin-3-YL)-1H-imidazol-1-YL)-N,N-dimethylpopan-1-amine as an antimicrobial compound” (KING FAISAL UNIVERSITY, priority 2023, dated 2024)",
  "key": {"Ps. Aeroqonaza": {"test_system": "Ps. Aeroqonaza", "assay": "Anti-microbial screening, agar dilution", "format": "cell-based, Ps. aeruginosa", "details": "after 10, 20, 40 and 60 minutes at all dilutions, 1:100, 1:200, 1:400, and 1:800", "procedure": "(§1) The antibacterial properties of the present compound were studied by the method of agar dilution. Test solutions of the compound were prepared in a concentration of 1% using dimethylformamide as a solvent then they are diluted in physiological solution to obtain the final experimental dilutions 1:100, 1:200, 1:400, and 1:800. The effect of these substances were compared with furacillin in a controllable study. The testing microbes used were gram positive bacteria St. Aereus, gram negative bacteria E. Coli, Ps. aeruginosa and Candida albicans fungi were taken. The experiments used for this survey were meat-pentonlu agar (EPA) for cultivation of bacteria and Saburo environment for fungi. Each experiment used 1 ml of test solution on each plate 500 min. Add 2 drops of emulsified with microbes feel. All experimental samples were taken from the agar after 10, 20, 40, and 60 minutes in the environment on the basis of Patrk planted. Bacteria were cultivated at a temperature of 37° C. for 1 day and the mushroom was kept in a thermostat for […] at a temperature of 28° C. Then results were checked."}, "St. Aereus": {"test_system": "St. Aereus", "assay": "Anti-microbial screening, agar dilution", "format": "cell-based", "details": "after 10, 20, 40 and 60 minutes at all dilutions, 1:100, 1:200, 1:400, and 1:800", "procedure": "as §1"}, "E. Coli": {"test_system": "E. Coli", "assay": "Anti-microbial screening, agar dilution", "format": "cell-based", "details": "after 10, 20, 40 and 60 minutes at all dilutions, 1:100, 1:200, 1:400, and 1:800", "procedure": "as §1"}, "Candida albicans": {"test_system": "Candida albicans", "assay": "Anti-microbial screening, agar dilution", "format": "cell-based", "details": "after 10, 20, 40 and 60 minutes at all dilutions, 1:100, 1:200, 1:400, and 1:800", "procedure": "as §1"}},
  "data": [
    {"smiles": "CN(C)CCCn1c(-c2cccnc2)nc(-c2ccccc2)c1-c1ccccc1", "note": "[3-(4,5-Diphenyl-2-(pyridin-3-yl)-1H-imidazol-1-yl)-N,N-dimethylpropan-1-amine]", "values": [
      {"measurement": "melting point", "value": "145 to 147", "unit": "°C"},
      {"measurement": "inhibition activity, Ps. aeruginosa", "setting": "Ps. Aeroqonaza", "value": "highest inhibition activity"},
      {"measurement": "inhibition activity, St. Aereus", "setting": "St. Aereus", "value": "highest inhibition activity"},
      {"measurement": "inhibition activity, E. Coli", "setting": "E. Coli", "value": "highest inhibition activity"},
      {"measurement": "inhibition activity, Candida albicans", "setting": "Candida albicans", "value": "highest inhibition activity"}
    ]}
  ]
}
